Key:
Type in all cases: cell-based
AR protein = target: T1, AR protein (Homo sapiens, UniProt P10275); experiment: AR protein degradation in VCaP cells (Western blot); details: 8h
T1 construct: AR-positive human prostate cancer cells VCaP (cell source: ATCC); host or cells: VCaP
T1 sequence (P10275 1-920): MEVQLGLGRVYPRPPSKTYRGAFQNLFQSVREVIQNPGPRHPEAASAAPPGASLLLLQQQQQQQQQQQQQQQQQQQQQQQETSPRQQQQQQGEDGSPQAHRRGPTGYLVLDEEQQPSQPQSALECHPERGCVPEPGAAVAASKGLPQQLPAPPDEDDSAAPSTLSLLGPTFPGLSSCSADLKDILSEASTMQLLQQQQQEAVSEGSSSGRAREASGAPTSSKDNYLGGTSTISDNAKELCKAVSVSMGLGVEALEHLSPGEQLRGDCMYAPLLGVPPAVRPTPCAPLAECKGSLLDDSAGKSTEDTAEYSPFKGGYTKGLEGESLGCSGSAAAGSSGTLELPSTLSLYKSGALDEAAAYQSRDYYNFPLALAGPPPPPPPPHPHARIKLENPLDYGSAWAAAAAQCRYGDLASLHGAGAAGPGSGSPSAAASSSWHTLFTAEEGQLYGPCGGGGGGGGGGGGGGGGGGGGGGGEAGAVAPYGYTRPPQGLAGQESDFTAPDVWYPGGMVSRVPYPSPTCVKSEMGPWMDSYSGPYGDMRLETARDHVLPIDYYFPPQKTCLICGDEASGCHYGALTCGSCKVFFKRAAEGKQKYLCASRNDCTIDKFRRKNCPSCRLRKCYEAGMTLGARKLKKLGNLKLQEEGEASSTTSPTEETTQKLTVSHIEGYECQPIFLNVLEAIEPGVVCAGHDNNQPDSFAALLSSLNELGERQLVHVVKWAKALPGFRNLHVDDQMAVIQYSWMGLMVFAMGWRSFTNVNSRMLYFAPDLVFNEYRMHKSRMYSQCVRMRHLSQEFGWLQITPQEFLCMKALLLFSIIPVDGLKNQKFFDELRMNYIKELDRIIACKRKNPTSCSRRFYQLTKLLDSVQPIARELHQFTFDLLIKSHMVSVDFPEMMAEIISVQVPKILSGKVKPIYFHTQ
Experimental: AR-positive human prostate cancer cells VCaP (cell source: ATCC) were cultured in DMEM (GiBco catalog number 11995-065) containing 10% FBS (Hyclone catalog number SH30406.05), and the cells were inoculated in a six-well microplate (Thermo catalog number 140675) at a density of 3 × 10^5 cells/well. After being cultured overnight in a carbon dioxide incubator (ESCO), the prepared compound of the present invention and the positive control sample ARV-766 (energy chemical) solution of different concentrations were added at a volume of 1 µL/well to make the final concentrations of the compound and the positive control sample reach 5nM and 0.5nM, respectively. At the same time, the corresponding solvent control was set and cultured for 8h. After 8h of culture, the culture medium was removed, and the cells were washed with PBS. RIPA lysis buffer containing 1% Protease Inhibitor Cocktail was added. After lysis and centrifugation, a total protein extract was obtained, and the protein concentration in the extract was detected by BCA method. Protein electrophoresis was performed using SDS-PAGE, and then the protein was transferred to a PVDF (Millipore Sigma catalog number PSRP010R5) membrane at a constant voltage of 100V for 60min. The PVDF membrane was placed in a 5% milk powder 1×TBST solution and blocked at room temperature for 1h. The primary antibody solution (Anti-Androgen receptor, Cell Signaling Technology catalog number: 5153S; 1:2000 dilution) was prepared and incubated at 4°C overnight. The primary antibody solution was discarded and the PVDF membrane was washed with 1×TBST for 5 minutes each time, three times. The secondary antibody solution (Thermo catalog number SA5-35571; 1:7500 dilution) was prepared and incubated at room temperature for 1 hour. The secondary antibody solution was discarded and the PVDF membrane was washed with 1×TBST for 5 minutes each time, three times. A dual-color infrared laser imaging system (Licor catalog number Odyssey CLX) was used for Western membrane imaging. The Image Studio software was used to analyze the grayscale of the bands. GAPDH protein bands were also detected for each sample as an internal reference. The AR protein degradation rate of the compound and the positive control sample was calculated based on the grayscale of the protein bands. Among them, "A" means degradation rate ≥ 50%, "B" means 50%> degradation rate ≥ 20%, "C" means 20% degradation rate ≥ 10%, and "D" means degradation rate less than 10%.

TNFα = experiment: LPS-induced TNFα secretion by PBMC (HTRF detection); details: Homo sapiens, hPBMC, 20 hours compound then LPS 200 ng/mL for 5 hours, read-out: IC50 (inhibition of LPS-induced TNFα)
Experimental: (§1) After thawing, cryopreserved hPBMC (FPB003F-C, Shanghai OriBiotech) cells were resuspended in RPMI 1640 medium (30-2001,ATCC) containing 10% inactivated FBS (10099141C, Gibco) and cultured overnight at 37°C and 5% CO2. The next day, hPBMC cells were seeded in a 96-well cell culture plate at a density of 2 × 10^5 cells/well/100 µL (2 × 10^6 cells/mL), and 100 µL of compound in dimethyl sulfoxide solution (final concentration 0.0064-2500 nM) was added. […] The cell plate was placed in a 37°C, 5% CO2 incubator for 5 hours, and then centrifuged at 1000 rpm for 15 minutes. 100 µL of cell supernatant was collected from each well for cytokine concentration testing, which was tested immediately or frozen at -80°C for testing.
The TNFα concentration in the supernatant of LPS-induced THP-1 cells was determined using the TNF […] detection kit (62[…], PerkinElmer).
TNFα standard solutions of varying concentrations were prepared according to the product instructions, ranging from 0 to 2500 pg/mL. Equal volumes of Eu Cryptate antibody (1×) and d2 antibody (1×) were used to prepare the antibody mixture. 16 µL of standard solution or sample supernatant and 4 µL of the antibody mixture were added to each well of a 384-well white plate. The mixture was centrifuged at 800 rpm for 1 minute and incubated at room temperature for 2 hours. The absorbance at 620 nm and […] was read using a microplate reader (SPARK m1000pro, TECAN). A standard curve was plotted using the signal values of each TNFα standard solution. The TNFα concentration in each sample was determined based on the corresponding concentration of the signal value on the standard curve. The inhibitory rate of the compound on LPS-induced TNFα expression in THP-1 cell supernatants at different drug concentrations was calculated based on the TNFα concentration. The inhibition rate data were plotted in GraphPad Prism 8.0 software, and the IC50 value was calculated. Inhibition Rate = [1−(OD(Sample)−OD(Blank))/(OD(Control)−OD(Blank))] × 100% [formula] Table 9: Degradation effect of example compounds on IRAK4 in PBMC cells

IL-6 = experiment: LPS-induced IL-6 secretion by hPBMC (ELISA); details: Homo sapiens, 20 h compound then LPS 200 ng/mL for 5 h; for inhibition at […]: 2500nM, read-out: Inhibition Rate of IL-6 (2500nM)
Experimental: as §1, with “OriBiotech.)” for “OriBiotech)”, “(30-2001, ATCC)” for “(30-2001,ATCC)”, “h,” for “hours,”, “min.” for “minutes.”, “awhich” for “which”
The IL-6 concentration in the supernatant of hPBMC cells induced by LPS was determined using a Human IL-6 ELISA kit (D6050, RD).
IL-6 standard solutions of varying concentrations were prepared according to the product instructions, ranging from 0 to 300 pg/mL. 100 µL of Assay Diluent RD1W and 100 µL of standard solution or sample supernatant were added to a pre-coated ELISA plate and incubated at room temperature for 2 hours. After washing the plate four times with 1× wash buffer, then 200 µL of Human IL-6 Conjugate was added and incubated at room temperature for 2 hours. After washing the plate four times with 1× wash buffer, then 200 µL of Substrate Solution was added and incubated at room temperature for 20 minutes. Finally, 50 µL of Stop Solution was added to terminate the reaction. The absorbance at 450 nm and 570 nm were read using a microplate reader (SPARK m1000pro, TECAN). The standard curve was plottd by the signal value of each concentration of IL-6 standard solution, and the IL-6 concentration in each sample was determined according to the corresponding concentration of the signal value of each well on the standard curve. The inhibition rate of the compound on LPS-induced IL-6 in the hPBMC cell supernatant at different drug concentrations was calculated according to the IL-6 concentration. The inhibition rate data were plotted in GraphPad Prism 8.0 software to calculate the IC50 value. Inhibition Rate = [1−(OD(sample)−OD(blank))/(OD(control)−OD(blank))] × 100% [formula] Table 10: Inhibitory effect of Example compounds on LPS-induced IL-6 secretion by hPBMC

SMILES	Degradation rate of AR protein in VCAP cells (AR protein; 0.5 nM)	Degradation rate of AR protein in VCAP cells (AR protein; 5 nM)	IC50 (TNFα) [nM]	inhibition at […] (IL-6) [%]	inhibition at 0.02 µM (IL-6; 20nM, read-out: Inhibition Rate of IL-6 (20nM)) [%]
C[C@H]1CC2(CCN(c3ccc(C(=O)N4CCC(F)(CN5CCC6(CC5)COc5cc(N7CCC(=O)NC7=O)ccc56)CC4)cc3)CC2)CN1c1ccc(C#N)c(Cl)c1 [A-P-265, (S)-2-chloro-4-(8-(4-(4-((6-(2,4-dioxotetrahydropyrimidin-1(2H)-yl)-2H-spiro[benzofuran-3,4'-piperidine]-1'-yl)methyl)-4-fluoropiperidine-1-carbonyl)phenyl)-3-methyl-2,8-diazaspiro[4.5]dec-2-yl)benzonitrile]	B (50%> degradation rate ≥ 20%)	A (degradation rate ≥ 50%)			
O=C1CCN(c2ccc3c(c2)CC2(CO3)CN(CC3CCN(C(=O)C4CCC(n5cc(NC(=O)c6cnn7ccc(N8CC9CC8CO9)nc67)c(C(F)F)n5)CC4)CC3)C2)C(=O)N1 (centres unmarked) [IR-P-6]			95.6	65	
O=C1CCN(c2ccc3c(c2)CC2(CCN(CC4CCN(C(=O)C5CCC(n6cc(NC(=O)c7cnn8ccc(N9CC%10CC9CO%10)nc78)c(C(F)F)n6)CC5)CC4)CC2)O3)C(=O)N1 (centres unmarked) [IR-P-7]				46	
Cn1c(=O)n(C2CCC(=O)NC2=O)c2cccc(C#CCOC3CCN(C[C@H]4CC[C@H](n5cc(NC(=O)c6cnn7ccc(N8C[C@H]9C[C@@H]8CO9)nc67)c(C(F)F)n5)CC4)CC3)c21 (some centres unmarked) [KT-474, reference compound]			52.3	85	63
